Assay: xn = mol fraction of the nth substance listed
Details: 100 kPa

C[N+](C)(C)Cc1ccccc1.[Cl-] + O
viscosity [mPa·s]
Details	298.15 K	303.15 K	308.15 K	313.15 K	318.15 K
x1 = 0.0001	0.895	0.806	0.723	0.627	0.541
x1 = 0.0003	0.897	0.808	0.726	0.623	0.537
x1 = 0.0005	0.901	–	0.73	0.638	0.552
